These are literature values, as cited in US5945412A, “Methods and compositions for preventing and treating bone loss” (Merck & Co., Inc., priority 1997, dated 1999).

In the data set the test system is human type 2 enzyme (5α-reductase). The following applies: background statement.

On to `CC(C)(C)NC(=O)[C@H]1CC[C@H]2[C@@H]3CC[C@H]4NC(=O)C=C[C@]4(C)[C@H]3CC[C@]12C` [Finasteride, 17β-(N-tert-butylcarbamoyl)-3-oxo-4-aza-5α-androst-1-en-3-one], for which the “inhibition of the human type 2 enzyme (in words)” value is recorded as “potent inhibitor”.
